From patent publication US20230107642A1 (Erasca, Inc., priority 2020, published 2023)

biological target: T1, Cys12 of the KRAS 4B G12C protein (Homo sapiens, UniProt P01116, G12C); test: In vitro covalent adduct formation (CAF) assay, LC-MS intact mass; format: binding; conditions: 10 uM compound, 60 min
T1 construct: This protein contained 188 amino acids in total, including an N-terminal 6-Histidine tag; made in house; host or cells: E. coli BL21
Method in brief: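 GDP-loaded (>95%) His-TEV-tagged KRAS 4B G12C (residues 1–169), 5 μM in TBS pH 7.4, incubated with 10 μM compound (4% DMSO) at 22° C for one hour. Intact-protein LC-MS gave free:adduct ratios, reported as percent protein modified; duplicate runs.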

Question: With C=CC(=O)N1[C@H](C)CN(c2nc(=O)n3c4c(c(-c5ccc(F)cc5F)c(C(F)(F)F)cc24)SCC(CO)(CO)C3)C[C@@H]1C [Example 1442, 8-((3S,5R)-4-acryloyl-3,5-dimethylpiperazin-1-yl)-11-(2,4-difluorophenyl)-3,3-bis(hydroxymethyl)-10-(trifluoromethyl)-3,4-dihydro-2H,6H-[1,4]thiazepino[2,3,4-ij]quinazolin-6-one] as the compound, how does the “% CAF 10 uM @ 60 min” value read?
Answer: 93%

Question: With C=CC(=O)N1[C@H](C)CN(c2nc(=O)n3c4c(c(-c5cc(Br)c(F)cc5F)c(C(F)(F)F)cc24)SC[C@@H]3COC)C[C@@H]1C [Example 1443, (3S)-7-((3S,5R)-4-acryloyl-3,5-dimethylpiperazin-1-yl)-10-(5-bromo-2,4-difluorophenyl)-3-(methoxymethyl)-9-(trifluoromethyl)-2,3-dihydro-5H-[1,4]thiazino[2,3,4-ij]quinazolin-5-one] as the compound, how does the “% CAF 10 uM @ 60 min” value read?
Answer: 85%

Question: For C=CC(=O)N1[C@H](C)CN(c2nc(=O)n3c4c(c(-c5cc(O)c(F)cc5F)c(C(F)(F)F)cc24)SC[C@@H]3COC)C[C@@H]1C [Example 1444, (3S)-7-((3S,5R)-4-acryloyl-3,5-dimethylpiperazin-1-yl)-10-(2,4-difluoro-5-hydroxyphenyl)-3-(methoxymethyl)-9-(trifluoromethyl)-2,3-dihydro-5H-[1,4]thiazino[2,3,4-ij]quinazolin-5-one], which “% CAF 10 uM @ 60 min” value is on record?
Answer: 90%

Question: For C=CC(=O)N1[C@H](C)CN(c2nc(=O)n3c4c(c(-c5nc(N)ccc5I)c(C(F)(F)F)cc24)SC[C@@H]3COC)C[C@@H]1C [Example 1449, (3S)-7-((3S,5R)-4-acryloyl-3,5-dimethylpiperazin-1-yl)-10-(6-amino-3-iodopyridin-2-yl)-3-(methoxymethyl)-9-(trifluoromethyl)-2,3-dihydro-5H-[1,4]thiazino[2,3,4-ij]quinazolin-5-one], which “% CAF 10 uM @ 60 min” value is on record?
Answer: 94%

Question: Which “% CAF 10 uM @ 60 min” value does the source give for C=CC(=O)N1[C@H](C)CN(c2nc(=O)n3c4c(c(-c5ccc(F)cc5)c(C(F)(F)F)cc24)SC[C@@H](N2CCCC2=O)C3)C[C@@H]1C [Example 1450, (S)-8-((3S,5R)-4-acryloyl-3,5-dimethylpiperazin-1-yl)-11-(4-fluorophenyl)-3-(2-oxopyrrolidin-1-yl)-10-(trifluoromethyl)-3,4-dihydro-2H,6H-[1,4]thiazepino[2,3,4-ij]quinazolin-6-one] here?
Answer: 96%

Question: With C=CC(=O)N1[C@H](C)CN(c2nc(=O)n3c4c(c(-c5ccc(F)cc5F)c(C(F)(F)F)cc24)SC[C@@H]3CC)C[C@@H]1C [Example 1451, (3S)-7-((3S,5R)-4-acryloyl-3,5-dimethylpiperazin-1-yl)-10-(2,4-difluorophenyl)-3-ethyl-9-(trifluoromethyl)-2,3-dihydro-5H-[1,4]thiazino[2,3,4-ij]quinazolin-5-one] as the compound, how does the “% CAF 10 uM @ 60 min” value read?
Answer: 95%

Question: Which “% CAF 10 uM @ 60 min” value does the source give for C=CC(=O)N1[C@H](C)CN(c2nc(=O)n3c4c(c(-c5cc(Br)c(F)cc5F)c(C(F)(F)F)cc24)SCC2(COC2)C3)C[C@@H]1C [Example 1452, 8′-((3S,5R)-4-acryloyl-3,5-dimethylpiperazin-1-yl)-11′-(5-bromo-2,4-difluorophenyl)-10′-(trifluoromethyl)-2′H,4′H,6′H-spiro[oxetane-3,3′-[1,4]thiazepino[2,3,4-ij]quinazolin]-6′-one] here?
Answer: 97%

Question: With C=CC(=O)N1C[C@H](C)N(c2nc(=O)n3c4c(c(-c5cc(O)c(F)cc5F)c(C(F)(F)F)cc24)SCC2(COC2)C3)C[C@H]1C [Example 1454, 8′-((2S,5R)-4-acryloyl-2,5-dimethylpiperazin-1-yl)-11′-(2,4-difluoro-5-hydroxyphenyl)-10′-(trifluoromethyl)-2′H,4′H,6′H-spiro[oxetane-3,3′-[1,4]thiazepino[2,3,4-ij]quinazolin]-6′-one] as the compound, how does the “% CAF 10 uM @ 60 min” value read?
Answer: 92%

Question: Which “% CAF 10 uM @ 60 min” value does the source give for C=CC(=O)N1C[C@H](C)N(c2nc(=O)n3c4c(c(-c5cc(Br)c(F)cc5F)c(C(F)(F)F)cc24)SCC2(CCOCC2)C3)C[C@H]1C [Example 1455, 8′-((2S,5R)-4-Acryloyl-2,5-dimethylpiperazin-1-yl)-11′-(5-bromo-2,4-difluorophenyl)-10′-(trifluoromethyl)-2,3,5,6-tetrahydro-2′H,4′H,6′H-spiro[pyran-4,3′-[1,4]thiazepino[2,3-4-ij]quinazolin]-6′-one] here?
Answer: 66%

Question: Which “% CAF 10 uM @ 60 min” value does the source give for “(3S,10R)-7-((2S,5R)-4-acryloyl-2,5-dimethylpiperazin-1-yl)-10-(5-chloro-2,4-difluorophenyl)-3-((4-cyclopropylpiperazin-1-yl)methyl)-9-(trifluoromethyl)-2,3-dihydro-5H-[1,4]thiazino[2,3,4-ij]quinazolin-5-one [Example 1360]” here?
Answer: 92.8%

Question: For “(3S,10S)-7-((2S,5R)-4-acryloyl-2,5-dimethylpiperazin-1-yl)-10-(5-chloro-2,4-difluorophenyl)-3-((4-cyclopropylpiperazin-1-yl)methyl)-9-(trifluoromethyl)-2,3-dihydro-5H-[1,4]thiazino[2,3,4-ij]quinazolin-5-one [Example 1361]”, which “% CAF 10 uM @ 60 min” value is on record?
Answer: 29.8%

tested on: not listed separately; test: Determination of total drug concentration in rat brain (BBB penetration); format: in vivo; conditions: male SD rat, 2 mg/kg IV infusion for 4 hours, brain collected at end of 4 hours
Procedure: BB. Example 9: Determination of Total Drug Concentration in Rat Brain
In Vivo Experimental Procedures
Infuse male SD rat at 2 mg/kg dose for 4 hours through IV administration route. Collect brain tissues at the end of 4 hours.
Sample Preparation Procedures
Dilute brain tissue by adding homogenization solvent (1:4, w/v). Homogenize diluted brain tissue samples. Extract analyte by adding organic solvent (1:4, v/v) with spiked internal standard. Vortex and centrifuge the samples. Remove supernatant and dilute with HPLC compatible solvent (1:3, v/v).
Inject diluted extract into LC-MS/MS system using reversed phase high performance liquid chromatography coupled with electrospray ionization and selected reaction monitoring. Determine the total drug concentration in brain samples by quantitating against the standard curve prepared using the same matrix.
The following data provides blood brain barrier (BBB) penetration activity for a selection of inventive compounds where were directly compared to sotorasib and adagrasib (concentration in brain measured in ng/g).
Compounds that were measured as having a total concentration in the brain of at least 60 ng/g are indicated as “+”.

Question: Which BBB activity does the source give for C=CC(=O)N1C[C@H](C)N(c2nc(=O)n3c4c(c(-c5ccc(F)cc5F)c(C(F)(F)F)cc24)SC[C@@H]3COC)C[C@H]1C (atropisomer, axis not shown) [Example 13-1] here?
Answer: + (Compounds that were measured as having a total concentration in the brain of at least 60 ng/g are indicated as “+”)

Question: With C=CC(=O)N1[C@H](C)CN(c2nc(=O)n3c4c(c(-c5cc(Cl)c(F)cc5F)c(C(F)(F)F)cc24)SC[C@@H]3COC)C[C@@H]1C (atropisomer, axis not shown) [Example 13-2] as the compound, how does the BBB activity read?
Answer: + (Compounds that were measured as having a total concentration in the brain of at least 60 ng/g are indicated as “+”)

Question: Which BBB activity does the source give for C=CC(=O)N1[C@H](C)CN(c2nc(=O)n3c4c(c(-c5ccc(Cl)cc5F)c(C(F)(F)F)cc24)SC[C@@H]3COC)C[C@@H]1C (atropisomer, axis not shown) [Example 13-3] here?
Answer: + (Compounds that were measured as having a total concentration in the brain of at least 60 ng/g are indicated as “+”)

Question: For C=CC(=O)N1[C@H](C)CN(c2nc(=O)n3c4c(c(-c5cc(Br)c(F)cc5F)c(C(F)(F)F)cc24)SC[C@@H]3COC)C[C@@H]1C (atropisomer, axis not shown) [Example 13-4], which BBB activity is on record?
Answer: + (Compounds that were measured as having a total concentration in the brain of at least 60 ng/g are indicated as “+”)

Question: For C=CC(=O)N1[C@H](C)CN(c2nc(=O)n3c4c(c(-c5cc(Br)c(F)cc5F)c(C(F)(F)F)cc24)SC[C@@H]3CC)C[C@@H]1C (atropisomer, axis not shown) [Example 13-6], which BBB activity is on record?
Answer: + (Compounds that were measured as having a total concentration in the brain of at least 60 ng/g are indicated as “+”)

Question: With C=CC(=O)N1CCN(c2nc(=O)n3c4c(c(-c5cc(Cl)c(F)cc5F)c(C(F)(F)F)cc24)SC[C@@H]3COC)CC1 (atropisomer, axis not shown) [Example 13-7] as the compound, how does the BBB activity read?
Answer: + (Compounds that were measured as having a total concentration in the brain of at least 60 ng/g are indicated as “+”)

Question: With C=CC(=O)N1[C@H](C)CN(c2nc(=O)n3c4c(c(-c5cc(Cl)c(F)cc5F)c(C(F)(F)F)cc24)SC[C@@H]3CC)C[C@@H]1C (atropisomer, axis not shown) [Example 13-8] as the compound, how does the BBB activity read?
Answer: + (Compounds that were measured as having a total concentration in the brain of at least 60 ng/g are indicated as “+”)

Question: With C=CC(=O)N1[C@H](C)CN(c2nc(=O)n3c4c(c(-c5cc(I)c(F)cc5F)c(C(F)(F)F)cc24)SC[C@@H]3COC)C[C@@H]1C (atropisomer, axis not shown) [Example 13-12] as the compound, how does the BBB activity read?
Answer: + (Compounds that were measured as having a total concentration in the brain of at least 60 ng/g are indicated as “+”)

Question: With C=CC(=O)N1[C@H](C)CN(c2nc(=O)n3c4c(c(-c5ccc(F)cc5F)c(C(F)(F)F)cc24)SC[C@@H]3COC)C[C@@H]1C (atropisomer, axis not shown) [Example 13-15] as the compound, how does the BBB activity read?
Answer: + (Compounds that were measured as having a total concentration in the brain of at least 60 ng/g are indicated as “+”)

Question: With C=CC(=O)N1CCN(c2nc(=O)n3c4c(c(-c5ccc(F)cc5F)c(C(F)(F)F)cc24)SC[C@@H]3COC)CC1 (atropisomer, axis not shown) [Example 13-17] as the compound, how does the BBB activity read?
Answer: + (Compounds that were measured as having a total concentration in the brain of at least 60 ng/g are indicated as “+”)

Question: Which BBB activity does the source give for C=CC(=O)N1[C@H](C)CN(c2nc(=O)n3c4c(c(-c5cc(Cl)c(F)cc5F)c(C(F)(F)F)cc24)SC[C@@H](OC)C3)C[C@@H]1C (atropisomer, axis not shown) [Example 13-39] here?
Answer: + (Compounds that were measured as having a total concentration in the brain of at least 60 ng/g are indicated as “+”)

Question: Which BBB activity does the source give for C=CC(=O)N1[C@H](C)CN(c2nc(=O)n3c4c(c(-c5cc(Cl)c(F)cc5F)c(C(F)(F)F)cc24)SCC2(COC2)C3)C[C@@H]1C (atropisomer, axis not shown) [Example 13-44] here?
Answer: + (Compounds that were measured as having a total concentration in the brain of at least 60 ng/g are indicated as “+”)

Question: Which BBB activity does the source give for C=CC(=O)N1[C@H](C)CN(c2nc(=O)n3c4c(c(-c5ccc(F)cc5F)c(C(F)(F)F)cc24)SC[C@@H](OCC)C3)C[C@@H]1C (atropisomer, axis not shown) [Example 13-52] here?
Answer: − (Compounds that did not meet this threshold are indicated as “−”)
